40 compounds from patent publication US10287251B2, “Pyrazole derivative or pharmaceutically acceptable salt thereof” (KISSEI PHARMACEUTICAL CO., LTD., priority 2015, dated 2019) can be followed below.

T1 sequence (Q8R455 whole entry): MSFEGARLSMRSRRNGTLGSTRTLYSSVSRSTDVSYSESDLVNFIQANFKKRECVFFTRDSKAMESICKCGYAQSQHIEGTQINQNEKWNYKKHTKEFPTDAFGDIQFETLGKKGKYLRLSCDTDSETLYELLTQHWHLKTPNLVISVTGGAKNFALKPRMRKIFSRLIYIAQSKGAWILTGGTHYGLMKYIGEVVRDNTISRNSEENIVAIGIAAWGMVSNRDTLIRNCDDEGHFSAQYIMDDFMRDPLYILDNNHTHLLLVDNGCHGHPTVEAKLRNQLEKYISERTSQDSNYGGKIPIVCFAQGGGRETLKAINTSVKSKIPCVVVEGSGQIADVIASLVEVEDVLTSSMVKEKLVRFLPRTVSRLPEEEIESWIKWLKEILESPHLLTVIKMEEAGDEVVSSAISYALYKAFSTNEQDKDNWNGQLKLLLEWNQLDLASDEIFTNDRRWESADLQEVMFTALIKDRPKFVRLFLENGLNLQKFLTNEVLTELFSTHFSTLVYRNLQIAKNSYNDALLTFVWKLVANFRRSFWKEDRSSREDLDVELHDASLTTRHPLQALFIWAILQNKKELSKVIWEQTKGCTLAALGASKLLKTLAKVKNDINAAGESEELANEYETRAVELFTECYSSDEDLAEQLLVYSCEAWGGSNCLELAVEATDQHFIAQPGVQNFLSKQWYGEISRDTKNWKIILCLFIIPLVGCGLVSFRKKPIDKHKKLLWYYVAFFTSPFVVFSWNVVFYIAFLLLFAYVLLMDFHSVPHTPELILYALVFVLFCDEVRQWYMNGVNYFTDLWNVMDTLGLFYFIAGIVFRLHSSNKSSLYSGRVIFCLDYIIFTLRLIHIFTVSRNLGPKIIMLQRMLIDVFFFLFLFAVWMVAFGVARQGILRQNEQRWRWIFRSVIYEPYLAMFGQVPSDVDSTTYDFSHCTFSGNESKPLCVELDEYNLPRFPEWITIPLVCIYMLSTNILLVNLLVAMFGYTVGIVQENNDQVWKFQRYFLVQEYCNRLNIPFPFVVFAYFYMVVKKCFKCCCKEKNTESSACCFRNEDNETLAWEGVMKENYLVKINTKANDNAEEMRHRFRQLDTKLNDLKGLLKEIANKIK

One assay concerns the target T1, TRPM8 (Rattus norvegicus, UniProt Q8R455).
T1 construct: from tissue; host or cells: whole animal, female SD rats (in vivo)
The experiment in a line: Confirmation test of inhibitory effects on icilin-induced wet-dog shakes. It is filed as in vivo. The following applies: female SD rats, oral dose 0.3 mg/kg, icilin 1 mg/kg i.p. 1 hour after dosing, shakes counted for 5 minutes. The source says:
Further, TRPM8 inhibitory activity can be evaluated by the efficacy inhibiting the wet-dog shake action which is induced by the administration of Icilin, TRPM8 agonist. Furthermore, an effect on overactive bladder (OAB) can be evaluated by an elongation of micturition interval against overactive bladder induced by acetic acid in accordance with a similar method described in J. Urol., 2001, 166, 1142.
Confirmation Test of Inhibitory Effects on Icilin-induced Wet-dog Shakes
Test compounds were dissolved in dimethylacetamide (wako), and 0.5% methylcellulose solution (wako) was added to make the solution or suspension containing 5% of dimethylacetatnide. At a dose of 0.3 to 10 mg/kg/5mL of test compounds were orally administered to female SD rats. After 1 hour, wet-dog shakes were induced by the intraperitoneal injection of icilin (1 mg/kg) which was dissolved in polyethylene glycol 400 (wako). From 5 minutes after the administration of icilin, wet-dog shakes were counted for 5 minutes. For control example, vehicle (a mixture of dimethylacetamide (wako): 0.5% methylcellulose (wako)=5:95) was administrated similarly, and the number of wet-dog shakes was counted in the same manner. A percent inhibition of wet-dog shakes by test compound was calculated from the following formula: [1-(test compound wet-dog shake count/vehicle wet-dog shake count)]×100.
Consider `CO[C@H](CO)[C@@H](Cn1nccn1)NC(=O)c1cccc(F)c1-c1n[nH]c(-c2ccc(F)cc2)c1F` [Example 27-30], for which the “% inhibition of Wet-Dog Shake” value was determined as 62%. For `CO[C@H](CO)[C@@H](Cc1ncccc1F)NC(=O)c1cccc(F)c1-c1cc(-c2ccc(F)cc2)[nH]n1` [Example 27-20], the “% inhibition of Wet-Dog Shake” value amounted to 56%.

The assay is the same for the next values; noted with them: female SD rats, oral dose 1 mg/kg, icilin 1 mg/kg i.p. 1 hour after dosing, shakes counted for 5 minutes.
On to `O=C(N[C@H](Cn1cccn1)[C@H](F)CO)c1cccc(F)c1-c1n[nH]c(-c2ccc(F)cc2)c1F` [Example 43-39], for which the “% inhibition of Wet-Dog Shake” value was found to be 81%.

Turning to `O=C(N[C@H](Cc1ccccn1)[C@H](F)CO)c1cccc(F)c1-c1cc(-c2ccc(F)cc2)[nH]n1` [Example 43-24], the “% inhibition of Wet-Dog Shake” value is 100%. For `O=C(N[C@H](Cc1ncccn1)[C@H](F)CO)c1cccc(F)c1-c1n[nH]c(-c2ccc(F)cc2)c1F` [Example 50-10], the “% inhibition of Wet-Dog Shake” value is 56%.

`O=C(N[C@@H]([C@H](O)CO)C(F)(F)c1ccccn1)c1cccc(F)c1-c1cc(-c2ccc(F)cc2)[nH]n1` [Example 1-229]: the “% inhibition of Wet-Dog Shake” value came to 56%. The same measure, in the same setting: the result for `CO[C@H](CO)[C@@H](Cn1nccn1)NC(=O)c1cccc(F)c1-c1cc(-c2ccc(F)cc2)[nH]n1` [Example 27-22] reads 100%; that for `O=C(N[C@H](Cn1cccn1)[C@H](O)CF)c1cccc(F)c1-c1cc(-c2ccc(F)cc2)[nH]n1` [Example 1-245], 55%. On to `COC[C@@H](O)[C@@H](Cn1nccn1)NC(=O)c1cccc(F)c1-c1cc(-c2ccc(F)cc2)[nH]n1` [Example 60-1], for which the “% inhibition of Wet-Dog Shake” value came to 92%.

The same assay, now with this note: female SD rats, oral dose 3 mg/kg, icilin 1 mg/kg i.p. 1 hour after dosing, shakes counted for 5 minutes.
For the compound `CC(c1ccccn1)[C@H](CO)NC(=O)c1cccc(F)c1-c1cc(-c2ccc(F)cc2)[nH]n1` (stereo partly shown) [Example 1-200], the “% inhibition of Wet-Dog Shake” value was found to be 91%.

As to `CO[C@H](CO)[C@@H](Cc1ccccn1)NC(=O)c1cccc(Cl)c1-c1cc(-c2ccc(F)cc2)[nH]n1` [Example 43-4], the “% inhibition of Wet-Dog Shake” value worked out at 77%.

On to `O=C(N[C@H](Cn1cccn1)[C@H](O)CO)c1cccc(F)c1-c1cc(-c2ccc(F)cc2)[nH]n1` [Example 1-226], for which the “% inhibition of Wet-Dog Shake” value was determined as 53%. With `C[C@@](O)(CO)[C@@H](Cc1ccccn1)NC(=O)c1cccc(Cl)c1-c1cc(-c2ccc(F)cc2)[nH]n1` [Example 1-225], the “% inhibition of Wet-Dog Shake” value is recorded as 37%. As to `NC(=O)[C@@H](Cc1ccccn1)NC(=O)c1cccc(F)c1-c1cc(-c2ccc(F)cc2)[nH]n1` [Example 37-1, (2R)-2-{3-Fluoro-2-[-5-(4-fluorophenyl)-1H-pyrazol-3-yl]benzoylamino}-3-(pyridin-2-yl)propanamide], the “% inhibition of Wet-Dog Shake” value came out at 38%. The same measure, in the same setting: in the case of `O=C(N[C@@H](CO)Cc1ccccn1)c1ccccc1-c1cc(-c2ccc(F)c(F)c2)[nH]n1` [Example 1-29] it was 66%; in that of `O=C(N[C@@H](CO)Cc1ccccc1)c1cccc(F)c1-c1cc(-c2ccc(F)cc2)[nH]n1` [Example 1-86], 76%. Regarding `C[C@](O)(CO)[C@@H](Cc1ccccn1)NC(=O)c1cccc(F)c1-c1cc(-c2ccc(F)cc2)[nH]n1` [Example 1-217], the “% inhibition of Wet-Dog Shake” value is on record as 75%. Turning to `O=C(N[C@@H](CO)Cc1cscn1)c1cccc(F)c1-c1cc(-c2ccc(F)cc2)[nH]n1` [Example 1-182], the “% inhibition of Wet-Dog Shake” value is 37%.

`CO[C@H](CO)[C@@H](Cc1ccccn1)NC(=O)c1cccc(F)c1-c1n[nH]c(-c2ccc(F)cc2)c1Cl` [Example 43-36]: the “% inhibition of Wet-Dog Shake” value amounted to 31%. Consider `O=C(N[C@H](Cc1ccccn1)[C@H](F)CO)c1cccc(F)c1-c1cc(-c2ccc(Cl)cc2)[nH]n1` [Example 50-7], for which the “% inhibition of Wet-Dog Shake” value was found to be 99%. Turning to `O=C(N[C@@H](CCO)Cc1ccccn1)c1cccc(F)c1-c1n[nH]c(-c2ccc(Cl)cc2)c1F` [Example 1-154], the “% inhibition of Wet-Dog Shake” value was 75%. In the case of `O=C(N[C@@H](CO)Cc1ccccn1)c1cccc(Cl)c1-c1cc(-c2ccc(F)cc2)[nH]n1` [Example 1-103], the “% inhibition of Wet-Dog Shake” value is recorded as 45%.

`CC(O)[C@@H](Cc1ccccn1)NC(=O)c1cccc(F)c1-c1cc(-c2ccc(F)cc2)[nH]n1` (stereo partly shown) [Example 1-113]: the “% inhibition of Wet-Dog Shake” value is given as 98%. Turning to `O=C(N[C@H](Cn1cccn1)[C@H](F)CO)c1cccc(F)c1-c1cc(-c2ccc(Cl)cc2)[nH]n1` [Example 43-44], the “% inhibition of Wet-Dog Shake” value was determined as 69%. The same measure, in the same setting: the result for `O=C(N[C@@H](CO)Cc1ncccc1Cl)c1cccc(F)c1-c1cc(-c2ccc(F)cc2)[nH]n1` [Example 39-2] reads 50%; that for `O=C(N[C@@H](CCO)C(O)c1ccccn1)c1cccc(F)c1-c1cc(-c2ccc(F)cc2)[nH]n1` (stereo partly shown) [Example 54-3], 62%.

As for `CCOC(c1ccccn1)[C@H](CO)NC(=O)c1cccc(F)c1-c1cc(-c2ccc(F)cc2)[nH]n1` (stereo partly shown) [Example 43-22], the “% inhibition of Wet-Dog Shake” value was 98%. Take `C[C@H](O)[C@@H](Cc1ccccc1)NC(=O)c1cccc(F)c1-c1cc(-c2ccc(F)cc2)[nH]n1` [Example 1-104]: the “% inhibition of Wet-Dog Shake” value came out at 60%. Take `COC(c1ccccn1)[C@H](CCO)NC(=O)c1cccc(F)c1-c1cc(-c2ccc(F)cc2)[nH]n1` (stereo partly shown) [Example 43-9]: the “% inhibition of Wet-Dog Shake” value amounted to 89%. Consider `O=C(N[C@H](Cn1cccn1)[C@H](F)CO)c1cccc(F)c1-c1cc(-c2ccc(F)cc2F)[nH]n1` [Example 43-46], for which the “% inhibition of Wet-Dog Shake” value is given as 70%. The same measure, in the same setting: the result for `CO[C@@H](CO)[C@@H](Cn1cccn1)NC(=O)c1cccc(F)c1-c1cc(-c2ccc(F)cc2)[nH]n1` [Example 27-17] reads 86%; that for `O=C(N[C@@H](CO)Cc1nccs1)c1cccc(F)c1-c1cc(-c2ccc(F)cc2)[nH]n1` [Example 1-177], 59%. In the case of `O=C(N[C@H](Cc1ccccn1)[C@H](O)CO)c1cccc(Cl)c1-c1cc(-c2ccc(F)cc2)[nH]n1` [Example 1-169], the “% inhibition of Wet-Dog Shake” value is 34%. As for `COc1cccnc1C[C@H](CO)NC(=O)c1cccc(F)c1-c1cc(-c2ccc(F)cc2)[nH]n1` [Example 1-196], the “% inhibition of Wet-Dog Shake” value came out at 63%.

Consider `O=C(N[C@@H](CCO)Cc1ccccn1)c1ccccc1-c1n[nH]c(-c2ccc(Cl)cc2)c1F` [Example 1-223], for which the “% inhibition of Wet-Dog Shake” value was 100%. In the case of `CC(c1ccccn1)[C@@H](NC(=O)c1cccc(F)c1-c1cc(-c2ccc(F)cc2)[nH]n1)[C@H](O)CO` (stereo partly shown) [Example 54-14], the “% inhibition of Wet-Dog Shake” value is 77%. On the same count and under the same terms, in the case of `C[C@@](Cc1ccccc1)(NC(=O)c1cccc(F)c1-c1cc(-c2ccc(F)cc2)[nH]n1)C(N)=O` [Example 24-1, (2S)-2-{3-Fluoro-2-[5-(4-fluorophenyl)-1H-pyrazol-3-yl]benzoylamino}-2-methyl-3-phenylpropanamide] it was 71%.

Staying with this assay, now noted: female SD rats, oral dose 10 mg/kg, icilin 1 mg/kg i.p. 1 hour after dosing, shakes counted for 5 minutes.
For `O=C(N[C@@H](CO)Cc1ccccn1)c1cccc(F)c1-c1cc(-c2ccccc2)[nH]n1` [Example 1-69], the “% inhibition of Wet-Dog Shake” value was 93%.

Take `O=C(N[C@@H](CO)Cc1ccccn1)c1ccccc1-c1cc(-c2ccc(Cl)c(F)c2)[nH]n1` [Example 1-85]: the “% inhibition of Wet-Dog Shake” value is 86%. Turning to `O=C(NCCc1ccccn1)c1ccccc1-c1cc(-c2ccccc2)[nH]n1` [Example 1-3], the “% inhibition of Wet-Dog Shake” value is 66%.
